Where two headings read alike, the source gives them in different places. Bounds are passed on as bounds.

The subject of assay [1] is EGFR^L858R Ba/F3 cells. Description: Antiproliferation assay (CellTiter-Glo). The format is cell-based. Conditions: vs ZNL-0056 and ZNL-0091. The method, then: (§1) Figure S6 Dose-response curves for the indicated compounds in EGFRL858R, EGFRL858R/C797S, and EGFRL858R/C775S Ba/F3 cells following 72 h of treatment. Cell viability was assessed with CellTiter-Glo.
(§2) Data are presented as the mean ± SEM (n = 4). Representative data from three independent experiments
(§3) (1 picture or pasted object on this page, not shown here)
(§4) For infection of Ba/F3 cells, 2.5 mL of viral supernatant and 8 μg/mL polybrene was added to 2.5 million cells per well in six-well plates. The plate was centrifuged at 2500 rpm for 90 minutes at 37 °C for the spin infection. Then, virus-containing medium was removed 48 hours later and successfully infected cells were selected with the addition of 1 μg/mL puromycin to the medium.
(§5) After 3 days, cells were transferred into the fresh medium without IL-3 and puromycin. IL-3-independent transformed cells were maintained in RPMI medium 1640 supplemented with 10%
(§6) FBS. Expression of EGFR was examined by Western blot.
(§7) Immunoblotting and antibodies
(§8) Cells were lysed in RIPA buffer (150 mM NaCl, 1.0% IGEPAL® CA-630, 0.5% sodium deoxycholate, 0.1% SDS, 50 mM Tris, pH 8.0) (Sigma, Cat# R0278) with protease inhibitor and phosphatase inhibitor (Roche). The protein concentrations were measured by BCA analysis (Thermo Fisher Scientific, Cat # PI23225). […]
(§9) or IRDye 680RD goat anti-Mouse IgG (LICOR Biosciences , Cat # 926-68070) secondary antibodies at room temperature for 1 hour. The membranes were detected on Odyssey CLx system. […]
(§10) treatment. Cell viability was determined by using CellTiter-Glo (Promega #G7571) according to the manufacturer’s instructions, measuring luminescence using an Envision plate-reader (PerkinElmer Inc.). […]
(§11) After 6 hours treatment, cells were pelleted, washed with PBS once and lysed with IP lysis buffer (25mMTris-HCl pH 7.4, 150mM NaCl, 1 mM EDTA, 1% NP-40 and 5% glycerol) (Thermo Fisher Scientific, Cat#87788) containing protease/phosphatase inhibitor cocktail (Roche). The protein concentrations were measured by BCA analysis (Pierce). […]
On the technique in general: In ATP-based viability assays light output follows the ATP content of the culture.

The subject of assay [2] is EGFR^L858R/C775S Ba/F3 cells. The assay is described as follows: Antiproliferation assay (CellTiter-Glo). It counts as cell-based. The note with it: vs EGFR^L858R Ba/F3. The method, then:
as §1, §2, §3, §4, §5, §6, §7, §8, §9, §10, §11

Assay [3] addresses T1, MKK7 (Homo sapiens, UniProt O14733).
T1 construct: purchased DiscoverX
T1 sequence (O14733 1-419): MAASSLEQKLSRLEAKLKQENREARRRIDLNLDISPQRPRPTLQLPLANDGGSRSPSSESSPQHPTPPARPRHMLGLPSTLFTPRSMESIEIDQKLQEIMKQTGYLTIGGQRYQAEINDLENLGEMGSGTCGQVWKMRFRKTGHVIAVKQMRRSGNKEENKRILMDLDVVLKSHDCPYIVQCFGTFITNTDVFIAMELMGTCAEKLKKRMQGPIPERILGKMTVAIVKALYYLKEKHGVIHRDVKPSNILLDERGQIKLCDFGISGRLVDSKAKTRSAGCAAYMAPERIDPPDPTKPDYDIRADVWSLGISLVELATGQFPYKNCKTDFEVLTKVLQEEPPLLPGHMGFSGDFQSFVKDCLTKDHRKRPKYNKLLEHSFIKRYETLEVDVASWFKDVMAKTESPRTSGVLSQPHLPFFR
The assay is described as follows: MKK7 binding, KdELECT assays (DiscoverX). The note with it: for fold loss of potency: vs ZNL-8162. From the text: Figure 2 ZNL-8162 is a molecular bident for MKK7. (A) Compound structures for MKK7-targeting molecular bident (ZNL-8162) and its relatives lacking one or both cysteine-reactive groups. (B) Covalent modeling for ZNL-8162 engagement of MKK7(PDB: 6YG3). (C) MS/MS spectrum of ZNL-8162 covalently modifying Cys218 and Cys276 of MKK7. Red and yellow circles indicate ions of type y for sequences marked (1) and (2), respectively. Blue circles indicate ions of b for sequence (1). *, carbamidomethyl cysteine, Δ, oxidized methionine. (D) MKK7 binding data were obtained from KdELECT assays (DiscoverX). Data are presented as mean ± s.d. of n = 2 biologically independent samples.
Table S2. […]

Assay [4] has as its system p-JNK1/2. Description: Immunoblot of MKK7-JNK pathway in MDA-MB-231 cells. The format is cell-based. The note with it: MDA-MB-231, anisomycin, 16 h, up to 10 μM. The method, then:
Figure S1. Effects of the indicated compounds on the MKK7 -JNK pathway in MDA -MB-231 cells after 16 h treatment. MDA -MB-231 cells were pretreated with anisomycin for 45 min prior to the addition of the indicated compounds f or 16 h. Representative data from two independent […]
Anisomycin (10 μg/mL) - + + +
(1 picture or pasted object on this page, not shown here) […]
as §7
Cells were lysed in RIPA buffer (150 mM NaCl, 1.0% IGEPAL® CA-630, 0.5% sodium deoxycholate, 0.1% SDS, 50 mM Tris, pH 8.0) (Sigma, Cat# R0278) with protease inhibitor and phosphatase inhibitor (Roche). The protein concentrations were measured by BCA analysis (Thermo Fisher Scientific, Cat # PI23225). Equal amounts of protein were resolved by 4-12% Bis-Tris gels (Life Technologies), and then transferred to the Immuno-Blot PVDF membrane (BioRad, cat # 1620177). The membranes were blocked by Intercept blocking buffer (LI-COR, cat #927-60001) for 1 hour at room temperature. Proteins were probed with appropriate primary antibodies at 4 ℃ overnight and then with IRDye®800-labeled goat anti-rabbit IgG (LICOR Biosciences, cat […]
or IRDye 680RD goat anti-Mouse IgG (LICOR Biosciences , Cat # 926-68070) secondary antibodies at room temperature for 1 hour. The membranes were detected on Odyssey CLx system.
Antibodies used in this study include anti-following proteins: EGFR (Cell signaling Technology, […]
Akt (Cell signaling Technology, # 9272L, 1:1000), p-Akt (Cell Signaling Technology, #4060S,
Background: In western blotting, separated proteins are transferred to a membrane and probed.

Assay [5] relates to T2, EGFR.
T2 construct: expressed in transfected cells; host or cells: Ba/F3 (murine pro-B cells transduced with an EGFR mutant expression vector)
The assay is described as follows: Cellular target engagement assays (competitive pulldown). The format is cell-based. The note with it: 1 μM probe. As for the experimental part:
Figure 4 ZNL-0056 covalently engages Cys775 and Cys797 in EGFR Ba/F3 cells. (A) Carton of competition EGFR pulldown strategy to test covalent EGFR engagement in cells. (B) Competitive pulldown assay in EGFR^L858R Ba/F3 cells treated with ZNL-0056 at the indicated concentrations for 6 h. Cell lysates were incubated with bio-osimertinib. (C) Competitive pulldown assay in EGFR^L858R Ba/F3 cells treated with ZNL-0056 at the indicated concentrations for 6 h. Cell lysates were incubated with bio-ZNL-0013, which competes for the binding pocket of the target kinase. (D) Competitive pulldown assay in EGFR^L858R/C797S Ba/F3 cells treated with ZNL-0056 at the indicated concentrations for 6 h. Cell lysates were incubated with bio-ZNL-0013, which competes for the binding pocket of the target kinase. Western blotting showing the pulldown (PD) or input (total lysate) of EGFR. […]
as §10, §11

Setting [6] is: Figure 2D, read-out: IC50 against MKK7.

As for `C=CC(=O)Nc1cc(C(=O)Nc2nc3cccc(C)c3n2[C@@H]2CCCCN(C(C)=O)C2)cs1` [ZNL-0013], the “cell growth inhibition activity, fold weaker” value in assay [1] was “about 5 fold”. Besides, the “potency loss (shift) in the EGFR^L858R/C775S mutant” value in assay [2] worked out at 20 fold.

As to `C=CC(=O)Nc1ccccc1Nc1nc(NC2CCN(C(=O)C=C)C2)ncc1Cl` (centres unmarked) [ZNL-8162], the IC50 in assay [3] (setting [6]) was 133 nM; in assay [3] (from ZNL-8163 and ZNL-8165 IC50 data, read-out: IC50 estimated from single warhead compounds assuming independent contributions from both covalent bonds) it was roughly 182 nM. For the same compound, the “inhibition of p-JNK1/2” value in assay [4] is reported as “strong inhibition”.

As to `C=CC(=O)Nc1ccccc1Nc1nc(NC2CCN(C(=O)CC)C2)ncc1Cl` (centres unmarked) [ZNL-8163], in assay [3] (setting [6]), the IC50 came to 437 nM. For the same compound, the “fold loss of potency” value in assay [3] is reported as roughly 3 fold. Besides, the “inhibition of p-JNK1/2” value in assay [4] is reported as “less potency”.

On to `C=CC(=O)N1CCC(Nc2ncc(Cl)c(Nc3ccccc3NC(=O)CC)n2)C1` (centres unmarked) [ZNL-8165], for which the IC50 in assay [3] (setting [6]) is 313 nM. The “fold loss of potency” value in assay [3] is listed as roughly 3 fold. The “inhibition of p-JNK1/2” value in assay [4] is listed as “less potency”.

On to `CCC(=O)Nc1ccccc1Nc1nc(NC2CCN(C(=O)CC)C2)ncc1Cl` (centres unmarked) [ZNL-8166], for which, in assay [3] (setting [6]), the IC50 is greater than 10000 nM. Also, the “inhibition of p-JNK1/2” value in assay [4] is “did not exhibit any inhibition”.

As to `C=CC(=O)Nc1cc(C(=O)Nc2nc3cccc(C)c3n2[C@@H]2CCCCN(C(=O)CCOCCOCCOCCOCCNC(=O)CCCC[C@@H]3SC[C@@H]4NC(=O)N[C@@H]43)C2)cs1` [bio-ZNL-0013], the “enrichment of EGFR from cell lysate under denaturing conditions” value in assay [5] is recorded as “significant enrichment”.

Broadly, the IC50 is the concentration that gives 50% inhibition.

(Values after PMC11212140, “Molecular Bidents with Two Electrophilic Warheads as a New Pharmacological Modality” (ACS Central Science, 2024).)
